For 29 compounds, IC50 and inhibition results are on record in ChEMBL document CHEMBL4270481, “ALK5 kinase inhibitory activity and synthesis of 2,3,4-substituted 5,5-dimethyl-5,6-dihydro-4H-pyrrolo[1,2-b]pyrazoles” (Eur J Med Chem, 2017).

SMILES strings stand for the structures. pIC50: −log10 of the molar value. Activity calls are given as the source filed them. The calls are words filed in the database; no cut-off is given here.

One assay deals with T1, TGF-beta receptor type-1 (Homo sapiens, UniProt P36897).
T1 sequence (P36897 whole entry): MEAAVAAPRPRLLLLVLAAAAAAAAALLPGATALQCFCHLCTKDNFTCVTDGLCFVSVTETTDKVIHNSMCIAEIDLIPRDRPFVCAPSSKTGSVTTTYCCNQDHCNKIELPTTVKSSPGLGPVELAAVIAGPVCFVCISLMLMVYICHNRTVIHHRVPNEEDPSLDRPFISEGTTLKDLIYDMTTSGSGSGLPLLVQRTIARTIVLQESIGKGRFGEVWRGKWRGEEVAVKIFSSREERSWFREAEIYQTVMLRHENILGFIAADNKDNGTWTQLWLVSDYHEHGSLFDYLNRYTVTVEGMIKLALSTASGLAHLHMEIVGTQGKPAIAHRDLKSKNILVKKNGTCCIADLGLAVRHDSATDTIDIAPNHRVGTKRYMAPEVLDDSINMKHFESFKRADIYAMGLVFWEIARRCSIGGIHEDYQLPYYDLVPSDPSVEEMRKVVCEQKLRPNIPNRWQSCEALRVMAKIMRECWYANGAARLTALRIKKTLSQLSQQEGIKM
In words: Inhibition of human ALK5 expressed in Sf9 insect cells using casein as substrate in presence of [gamma-33P]ATP. It counts as cell-based.

The target in assay [1] is Cyclin-dependent kinase 2/cyclin E1 (Homo sapiens, UniProt P24941). Briefly: Inhibition of human CDK2/cyclin E expressed in Sf9 insect cells using histone H1 as substrate in presence of [gamma-33P]ATP. It is filed as cell-based.
The target in assay [2] is Tyrosine-protein kinase ABL1 (Mus musculus, UniProt P00520). In words: biochemical. It is filed as cell-based, Sf9.
In the next assay the test system is K562. Briefly: Cytotoxicity against human K562 cells assessed as decrease in cell proliferation after 72 hrs by calcein AM staining-based assay. It is filed as functional. The following applies: K562, 72 h.
The test system of the next assay is MCF7. Briefly: Cytotoxicity against human MCF7 cells assessed as decrease in cell proliferation after 72 hrs by calcein AM staining-based assay. It counts as functional. The following applies: MCF7, 72 h.
The target in assay [3] is T2, TGF-beta receptor type-1 (Homo sapiens) (UniProt P36897).
T2 sequence (whole entry): T1 sequence (P36897 whole entry)
As to conditions: HeLa, at 1 µM.
Description: Inhibition of ALK5 in serum starved human HeLa cells assessed as reduction in TGF-beta-induced SMAD2/3 nuclear transaction at 1 uM pre-incubated for 30 mins before TGF-beta stimulation for 30 mins by immunofluorescence analysis

Sequence of Tyrosine-protein kinase ABL1 (P00520 whole entry): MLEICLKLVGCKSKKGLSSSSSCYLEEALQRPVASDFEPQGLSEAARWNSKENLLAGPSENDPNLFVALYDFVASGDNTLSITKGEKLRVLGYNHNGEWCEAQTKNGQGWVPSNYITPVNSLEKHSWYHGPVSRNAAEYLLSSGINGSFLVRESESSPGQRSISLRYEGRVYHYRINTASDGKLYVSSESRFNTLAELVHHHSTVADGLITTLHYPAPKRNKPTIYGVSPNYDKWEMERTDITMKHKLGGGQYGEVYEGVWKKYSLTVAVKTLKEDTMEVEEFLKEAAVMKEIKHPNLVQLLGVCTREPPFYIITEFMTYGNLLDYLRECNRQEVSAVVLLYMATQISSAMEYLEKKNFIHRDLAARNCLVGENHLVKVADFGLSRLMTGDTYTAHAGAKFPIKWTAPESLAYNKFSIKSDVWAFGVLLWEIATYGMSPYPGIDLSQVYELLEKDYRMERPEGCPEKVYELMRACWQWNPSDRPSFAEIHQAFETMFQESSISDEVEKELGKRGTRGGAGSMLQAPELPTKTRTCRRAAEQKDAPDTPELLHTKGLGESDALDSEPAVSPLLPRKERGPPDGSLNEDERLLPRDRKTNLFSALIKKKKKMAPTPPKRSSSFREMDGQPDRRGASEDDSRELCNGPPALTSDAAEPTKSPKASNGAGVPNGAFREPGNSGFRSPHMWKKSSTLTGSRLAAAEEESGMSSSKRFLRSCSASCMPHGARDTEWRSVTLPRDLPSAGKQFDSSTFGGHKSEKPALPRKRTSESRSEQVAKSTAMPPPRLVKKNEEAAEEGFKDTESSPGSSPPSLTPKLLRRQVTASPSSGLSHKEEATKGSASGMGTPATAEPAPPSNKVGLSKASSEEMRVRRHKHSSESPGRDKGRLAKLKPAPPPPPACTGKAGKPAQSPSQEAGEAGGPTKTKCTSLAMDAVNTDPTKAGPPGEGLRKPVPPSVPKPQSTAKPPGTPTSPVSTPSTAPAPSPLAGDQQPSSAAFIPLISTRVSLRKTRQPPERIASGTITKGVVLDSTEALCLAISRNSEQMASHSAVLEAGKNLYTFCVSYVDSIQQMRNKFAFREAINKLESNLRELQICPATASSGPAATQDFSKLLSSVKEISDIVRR

By pIC50 is commonly meant the IC50 on a negative log10 scale, so that one unit is a factor of ten. As to `Cc1cccc(-c2nn3c(c2-c2ccnc(Nc4ccc(S(N)(=O)=O)cc4)c2)CC(C)(C)C3)n1`, the pIC50 on TGF-beta receptor type-1 is 6.83; in assay [1] it was less than 4.00; in assay [2], 5.60; in the assay on K562, 4.28; in the assay with MCF7, 4.04.
Take `Cc1cccc(-c2nn3c(c2-c2ccnc(Cl)c2)CC(C)(C)C3)n1`: the pIC50 on TGF-beta receptor type-1 is 5.91; in assay [1] it was less than 4.00; in assay [2], less than 4.00; in the assay on K562, less than 4.00; with MCF7, less than 4.00.
`CC1c2c(-c3ccncc3)c(-c3ccccc3C#N)nn2CC1(C)C` (stereo not given): the pIC50 was 5.89 on TGF-beta receptor type-1; less than 4.00 in assay [1]; 4.96 in assay [2]; 4.11 in the assay on K562; less than 4.00 in the assay with MCF7.
As for `Cc1cccc(-c2nn3c(c2-c2ccc(O)cc2)[C@H](C)C(C)(C)C3)n1`, the negative logarithm of the IC50 (pIC50) at TGF-beta receptor type-1 was 7.01; in assay [1] it was less than 4.00; in assay [2], less than 4.00; in the assay with K562, less than 4.00; with MCF7 it was less than 4.00.
On to `COCC1c2c(-c3ccncc3)c(-c3cccc(C)n3)nn2CC1(C)C` (stereo not given), for which the pIC50 is 6.13 at TGF-beta receptor type-1; less than 4.00 in assay [1]; 4.60 in assay [2]; less than 4.00 in the assay on K562; less than 4.00 with MCF7.
On to `CCc1cccc(-c2nn3c(c2-c2ccnc(Nc4ccc(S(N)(=O)=O)cc4)c2)C(C)C(C)(C)C3)n1` (stereo not given), for which the pIC50 on TGF-beta receptor type-1 is 6.64; in assay [1] it was 4.43; in assay [2] it was 5.17; with K562, 4.62; with MCF7, 4.55.
As to `Cc1cccc(-c2nn3c(c2-c2ccnc(Cl)c2)C(C)C(C)(C)C3)n1` (stereo not given), the negative-log IC50 (pIC50) on TGF-beta receptor type-1 was 6.29; in assay [1], less than 4.00; in assay [2], less than 4.00; in the assay on K562, less than 4.00; in the assay with MCF7, less than 4.00.
On to `Cc1cccc(-c2nn3c(c2-c2ccncc2)C(C)C(C)(C)C3)n1` (stereo not given), for which the pIC50 is 6.74 on TGF-beta receptor type-1; less than 4.00 in assay [1]; 4.68 in assay [2]; less than 4.00 with K562; less than 4.00 in the assay on MCF7.
Consider `CCc1cccc(-c2nn3c(c2-c2ccc(O)cc2)C(C)C(C)(C)C3)n1` (stereo not given), for which the pIC50 is 7.01 at TGF-beta receptor type-1; less than 4.00 in assay [1]; less than 4.00 in assay [2]; less than 4.00 in the assay on K562; 4.34 in the assay with MCF7.
Take `COc1ccc(-c2c(-c3cccc(C)n3)nn3c2C(C)C(C)(C)C3)cc1` (stereo not given): the pIC50 at TGF-beta receptor type-1 is 6.21; in assay [1], less than 4.00; in assay [2], less than 4.00; in the assay on K562, 4.06; with MCF7 it was 4.18.
For the compound `CCc1cccc(-c2nn3c(c2-c2ccc(O)cc2)[C@@H](C)C(C)(C)C3)n1`, the pIC50 was 6.58 at TGF-beta receptor type-1; 4.28 in assay [1]; less than 4.00 in assay [2]; 4.11 in the assay with K562; 4.24 in the assay with MCF7.
The corresponding values for `CCOC(=O)c1ccc(-c2c(-c3cccc(C)n3)nn3c2C(C)C(C)(C)C3)cc1` (stereo not given) are 5.70, less than 4.00, less than 4.00, 4.35 and 4.54.
In the case of `Cc1cccc(-c2nn3c(c2-c2ccncc2)C(C)C(C)(C)C3)c1C#N` (stereo not given), the pIC50 on TGF-beta receptor type-1 was 6.79; in assay [1], less than 4.00; in assay [2], 5.19; with K562, 4.04; with MCF7 it was 4.01.
Turning to `Cc1cccc(-c2n[nH]cc2-c2ccc3ncccc3n2)n1` [GW786460X], the negative-log IC50 (pIC50) in assay [1] is less than 4.00; in assay [2], 4.68; in the assay on K562, less than 4.00; in the assay with MCF7 it was less than 4.00. Moreover, the inhibition result in assay [3] is “Active”.
For the compound `CCc1cccc(-c2nn3c(c2-c2ccc(O)cc2)[C@H](C)C(C)(C)C3)n1`, the pIC50 at TGF-beta receptor type-1 was 6.86; in assay [1] it was less than 4.00; in assay [2] it was less than 4.00; in the assay with K562, less than 4.00; with MCF7, less than 4.00.
With `CC1(C)Cc2c(-c3ccncc3)c(-c3ccccc3C#N)nn2C1`, the pIC50 at TGF-beta receptor type-1 was 5.60; in assay [1], less than 4.00; in assay [2], 4.70; in the assay with K562 it was less than 4.00; in the assay with MCF7 it was less than 4.00.
As for `CCc1cccc(-c2nn3c(c2-c2ccc(OC)cc2)C(C)C(C)(C)C3)n1` (stereo not given), the pIC50 was 6.09 at TGF-beta receptor type-1; less than 4.00 in assay [1]; less than 4.00 in assay [2]; 4.19 with K562; 4.35 in the assay with MCF7.
As for `CC1c2c(-c3ccc(O)cc3)c(-c3ccccc3C#N)nn2CC1(C)C` (stereo not given), the pIC50 on TGF-beta receptor type-1 is 5.28; in assay [1] it was less than 4.92; in assay [2] it was less than 4.92; in the assay with K562 it was less than 4.92; in the assay on MCF7, less than 4.92.
On to `Cc1cccc(-c2nn3c(c2-c2ccc(O)cc2)[C@@H](C)C(C)(C)C3)n1`, for which the negative logarithm of the IC50 (pIC50) at TGF-beta receptor type-1 is 6.71; in assay [1] it was less than 4.60; in assay [2], less than 4.00; with K562 it was less than 4.30; in the assay with MCF7, less than 4.30.
Consider `CCc1cccc(-c2nn3c(c2-c2ccnc(Cl)c2)C(C)C(C)(C)C3)n1` (stereo not given), for which the negative logarithm of the IC50 (pIC50) was 5.56 at TGF-beta receptor type-1; less than 4.00 in assay [1]; less than 4.00 in assay [2]; 4.09 with K562; less than 4.00 in the assay with MCF7.
In the case of `CC1(C)Cc2c(-c3ccncc3)c(-c3ccccn3)nn2C1`, the pIC50 on TGF-beta receptor type-1 is 5.71; in assay [1], less than 4.30; in assay [2], less than 4.30; in the assay with K562, less than 4.00; in the assay on MCF7, less than 4.00.
In the case of `Cc1cccc(-c2nn3c(c2-c2ccncc2)C(CO)C(C)(C)C3)n1` (stereo not given), the pIC50 at TGF-beta receptor type-1 was 5.85; in assay [1], less than 4.00; in assay [2], 4.03; in the assay with K562 it was less than 4.00; with MCF7 it was less than 4.00.
On to `CCc1cccc(-c2nn3c(c2-c2ccncc2)C(C)C(C)(C)C3)n1` (stereo not given), for which the pIC50 on TGF-beta receptor type-1 was 6.74; in assay [1] it was less than 4.00; in assay [2] it was 4.37; in the assay on K562, less than 4.00; in the assay with MCF7, less than 4.00.
On to `Cc1cccc(-c2nn3c(c2-c2ccc(O)cc2)C(C)C(C)(C)C3)c1C#N` (stereo not given), for which the pIC50 on TGF-beta receptor type-1 is 6.47; in assay [1] it was less than 4.92; in assay [2] it was less than 4.92; in the assay on K562 it was less than 4.92; in the assay with MCF7 it was less than 4.92.
With `Cc1cccc(-c2nn3c(c2-c2ccc(O)cc2)CC(C)(C)C3)n1`, the pIC50 on TGF-beta receptor type-1 was 6.64; in assay [1], less than 4.00; in assay [2], 4.70; in the assay on K562 it was less than 4.60; in the assay with MCF7, less than 4.60.
For the compound `CC1(C)Cc2c(-c3ccc(O)cc3)c(-c3ccccn3)nn2C1`, the pIC50 is 5.70 at TGF-beta receptor type-1; less than 4.00 in assay [1]; less than 4.00 in assay [2]; 4.13 in the assay with K562; less than 4.00 in the assay with MCF7.
For the compound `Cc1cccc(-c2nn3c(c2-c2ccnc(Nc4ccc(S(N)(=O)=O)cc4)c2)C(C)C(C)(C)C3)n1` (stereo not given), the pIC50 on TGF-beta receptor type-1 was 6.81; in assay [1], 4.96; in assay [2], 6.26; in the assay with K562, 4.51; in the assay with MCF7, 4.66.
The corresponding values for `Cc1cc(-c2c(-c3cccc(C)n3)nn3c2C(C)C(C)(C)C3)ccn1` (stereo not given) are 6.26, less than 4.00, 4.60, less than 4.00 and less than 4.00.
As for `Cc1cccc(-c2nn3c(c2-c2ccncc2)CC(C)(C)C3)n1`, the pIC50 on TGF-beta receptor type-1 was 6.39; in assay [1], less than 4.00; in assay [2], 4.59; with K562 it was less than 4.00; with MCF7, less than 4.00.
